Results published in patent publication US20110224204A1, “DI-SUBSTITUTED PHENYL COMPOUNDS” (priority 2008, published 2011).

Biological target: Human PDE10A1 (Homo sapiens, UniProt Q9Y233)
Assay: hPDE10A1 Enzyme Inhibition
Type: biochemical
Conditions: [3H]-cAMP substrate; read-out: hPDE10A1 IC50 Band
Experimental: hPDE10A1 Enzyme Activity: 50 μl samples of serially diluted Human PDE10A1 enzyme were incubated with 50 μl of [^3H]-cAMP for 20 minutes (at 37° C.). Reactions were carried out in Greiner 96 deep well 1 ml master-block. The enzyme was diluted in 20 mM Tris HCl pH7.4 and [^3H]-cAMP was diluted in 10 mM MgCl2, 40 mM Tris.HCl pH 7.4. The reaction was terminated by denaturing the PDE enzyme (at 70° C.) after which [^3H]-5′-AMP was converted to [^3H]-adenosine by adding 25 μl snake venom nucleotidase and incubating for 10 minutes (at 37° C.). Adenosine, being neutral, was separated from charged cAMP or AMP by the addition of 200 μl Dowex resin. Samples were shaken for 20 minutes then centrifuged for 3 minutes at 2,500 r.p.m. 50 μl of supernatant was removed and added to 200 μl of MicroScint-20 in white plates (Greiner 96-well Optiplate) and shaken for 30 minutes before reading on Perkin Elmer TopCount Scintillation Counter.
hPDE10A1 Enzyme Inhibition: To check inhibition profile 11 μl of serially diluted inhibitor was added to 50 μl of [^3H]-cAMP and 50 ul of diluted Human PDE10A1 and assay was carried out as in the enzyme activity assay. Data was analysed using Prism software (GraphPad Inc).

Chain of Human PDE10A1 (Q9Y233 1-779 isoform Q9Y233-1): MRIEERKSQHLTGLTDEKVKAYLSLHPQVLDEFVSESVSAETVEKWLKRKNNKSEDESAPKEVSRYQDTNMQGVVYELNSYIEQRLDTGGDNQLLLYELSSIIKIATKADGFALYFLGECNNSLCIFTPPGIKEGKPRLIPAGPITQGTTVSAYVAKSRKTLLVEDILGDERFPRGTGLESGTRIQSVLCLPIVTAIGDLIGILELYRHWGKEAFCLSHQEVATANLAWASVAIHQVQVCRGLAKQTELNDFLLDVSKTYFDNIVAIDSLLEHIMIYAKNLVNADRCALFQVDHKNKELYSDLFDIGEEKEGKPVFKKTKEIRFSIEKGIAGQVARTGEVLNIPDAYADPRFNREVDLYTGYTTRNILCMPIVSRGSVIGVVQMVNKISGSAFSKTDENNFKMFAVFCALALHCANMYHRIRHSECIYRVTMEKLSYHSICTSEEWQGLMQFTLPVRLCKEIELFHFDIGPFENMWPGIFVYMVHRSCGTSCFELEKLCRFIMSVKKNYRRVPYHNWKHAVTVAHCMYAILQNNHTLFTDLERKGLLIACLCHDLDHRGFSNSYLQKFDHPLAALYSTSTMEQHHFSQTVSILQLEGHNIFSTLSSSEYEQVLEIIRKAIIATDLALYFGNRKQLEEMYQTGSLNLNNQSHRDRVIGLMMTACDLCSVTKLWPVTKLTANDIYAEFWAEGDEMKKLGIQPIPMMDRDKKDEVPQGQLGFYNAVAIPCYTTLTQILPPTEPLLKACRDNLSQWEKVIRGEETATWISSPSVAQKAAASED

Row | Compound | IC50 [nM]
1 | COc1ccc(-c2ccccc2-c2ccc(OCc3ccc4ccccc4n3)cc2)cc1Cl [Example 1869] | > 50
2 | CS(=O)(=O)c1cccc(-c2ccncc2)c1-c1ccc(OCc2ccc3ccccc3n2)cc1 [Example 392, 2-((2′-(methylsulfonyl)-6′-(pyridin-4-yl)biphenyl-4-yloxy)methyl)quinoline] | ≤ 50
3 | N#Cc1cccc(N2CCOCC2)c1-c1ccc(OCc2ccc3ccccc3n2)cc1 [Example 448, 6-morpholino-4′-(quinolin-2-ylmethoxy)biphenyl-2-carbonitrile] | ≤ 50
4 | c1cc(-c2ccncc2)c(-c2ccc(OCc3ccc4ccccc4n3)cc2)c(C2OCCCO2)c1 [Example 1857, 2-((2′-(1,3-Dioxan-2-yl)-6′-(pyridin-4-yl)biphenyl-4-yloxy)methyl)quinoline] | ≤ 50
5 | COc1cc(-c2ccccc2-c2ccc(OCc3ccc4ccccc4n3)cc2)ccc1Cl [Example 1861] | ≤ 50
6 | Cc1ccnc(COc2ccc(-c3ccccc3-c3ccncc3)cc2)c1 [Example 1947, 4-methyl-2-((2′-(pyridin-4-yl)biphenyl-4-yloxy)methyl)pyridine] | > 50
7 | CN(C)Cc1cccc(-c2ccncc2)c1-c1ccc(OCc2ccc3ccccc3n2)cc1 [Example 1874, N,N-dimethyl-1-(6-(pyridin-4-yl)-4′-(quinolin-2-ylmethoxy)biphenyl-2-yl)methanamine] | > 50
8 | Cc1cnc(COc2ccc(-c3ccccc3-c3ccncc3)cc2)c(C)c1 [Example 1887, 3,5-dimethyl-2-((2′-(pyridin-4-yl)biphenyl-4-yloxy)methyl)pyridine] | ≤ 50
9 | c1cc(-c2ccncc2)c(-c2ccc(OCc3ccc4ccccc4n3)cc2)c(N2CCOCC2)c1 [Example 1873, 4-(6-(pyridin-4-yl)-4′-(quinolin-2-ylmethoxy)biphenyl-2-yl)morpholine] | > 50
10 | Cc1cccc(-c2ccc(OCc3ccc4ccccc4n3)cc2)c1-c1ccncc1 [Example 1886, 2-(3′-Methyl-2′-pyridin-4-yl-biphenyl-4-yloxymethyl)-quinoline] | > 50
11 | COc1ccc(-c2ccccc2-c2ccc(OCc3ccc4ccccc4n3)cc2)cc1C(F)(F)F [Example 1860] | ≤ 50
12 | Fc1cccc(-c2ccncc2)c1-c1ccc(OCc2ccc3ccccc3n2)cc1 [Example 381, 2-(6′-Fluoro-2′-pyridin-4-yl-biphenyl-4-yloxymethyl)-quinoline] | > 50
13 | Clc1ccc(-c2ccncc2)c(-c2ccc(OCc3ccc4ccccc4n3)cc2)c1 [Example 405, 2-((5′-Chloro-2′-(pyridin-4-yl)biphenyl-4-yloxy)methyl)quinoline] | ≤ 50
14 | c1ccc(-c2ccc(OCc3cn4ccccc4n3)cc2)c(-c2ccncc2)c1 [Example 619, 2-((2′-(pyridin-4-yl)biphenyl-4-yloxy)methyl)imidazo[1,2-a]pyridine] | ≤ 50
15 | Fc1ccc(N2CCOCC2)c(-c2ccc(OCc3ccc4ccccc4n3)cc2)c1 [Example 469, 4-(5-fluoro-4′-(quinolin-2-ylmethoxy)biphenyl-2-yl)morpholine] | ≤ 50
16 | Cc1cccc(COc2ccc(-c3ccccc3-c3ccncc3)cc2)n1 [Example 1884, 2-methyl-6-((2′-(pyridin-4-yl)biphenyl-4-yloxy)methyl)pyridine] | > 50
17 | O=C(c1cccc(-c2ccncc2)c1-c1ccc(OCc2ccc3ccccc3n2)cc1)N1CCOCC1 [Example 1864, morpholino(6-(pyridin-4-yl)-4′-(quinolin-2-ylmethoxy)biphenyl-2-yl)methanone] | > 50
18 | N#Cc1ccc(-c2ccncc2)c(-c2ccc(OCc3ccc4ccccc4n3)cc2)c1 [Example 406, 6-(Pyridin-4-yl)-4′-(quinolin-2-ylmethoxy)biphenyl-3-carbonitrile] | ≤ 50
19 | c1ccc(-c2ccccc2-c2ccc(OCc3ccc4ccccc4n3)cc2)cc1 [Example 1863] | > 50
20 | Fc1ccc(-c2ccncc2)c(-c2ccc(OCc3ccc4ccccc4n3)cc2)c1 [Example 404, 2-((5′-fluoro-2′-(pyridin-4-yl)biphenyl-4-yloxy)methyl)quinoline] | ≤ 50
21 | Cc1ccc(-c2ccncc2)c(-c2ccc(OCc3ccc4ccccc4n3)cc2)c1 [Example 408, 2-(5′-Methyl-2′-pyridin-4-yl-biphenyl-4-yloxymethyl)-quinoline] | ≤ 50
22 | c1ccc(-c2ccc(OCc3ccc4ccccc4n3)cc2)c(-c2ccncc2)c1 [Example 380, 2-((2′-(Pyridin-4-yl)biphenyl-4-yloxy)methyl)quinoline] | ≤ 50
23 | N#Cc1ccc(-c2ccccc2-c2ccc(OCc3ccc4ccccc4n3)cc2)cc1Cl [Example 1865] | > 50
24 | COc1ccc(-c2ccccc2-c2ccc(OCc3ccc4ccccc4n3)cc2)cc1C#N [Example 281] | ≤ 50

Row | Compound | IC50 [nM]
25 | Cc1ccccc1-c1ccc(OCc2ccc3ccccc3n2)cc1 [Example 444, 2-((2′-methylbiphenyl-4-yloxy)methyl)quinoline] | > 50
26 | CC(C)Oc1ccccc1-c1ccc(OCc2ccc3ccccc3n2)cc1 [Example 1879, 2-((2′-isopropoxybiphenyl-4-yloxy)methyl)quinoline] | > 50
27 | Clc1cccc(-c2ccncc2)c1-c1ccc(OCc2ccc3ccccc3n2)cc1 [Example 382, 2-((2′-Chloro-6′-(pyridin-4-yl)biphenyl-4-yloxy)methyl)quinoline] | ≤ 50
28 | Fc1ccc(-c2ccncc2)c(N2CCC(OCc3ccc4ccccc4n3)CC2)c1 [Example 1706, 2-((1-(5-fluoro-2-(pyridin-4-yl)phenyl)piperidin-4-yloxy)methyl)quinoline] | > 50
29 | Cc1ccc(-c2ccc(OCc3ccc4ccccc4n3)cc2)c(-c2ccncc2)c1 [Example 1867, 2-(4′-Methyl-2′-pyridin-4-yl-biphenyl-4-yloxymethyl)-quinoline] | > 50
30 | N#Cc1cccc(-c2ccc(OCc3ccc4ccccc4n3)cc2)c1-c1ccncc1 [Example 1870, 2-Pyridin-4-yl-4′-(quinolin-2-ylmethoxy)-biphenyl-3-carbonitrile] | > 50
31 | Fc1cccc(-c2ccc(OCc3ccc4ccccc4n3)cc2)c1-c1ccncc1 [Example 1946, 2-(3′-Fluoro-2′-pyridin-4-ylbiphenyl-4-yloxymethyl)-quinoline] | > 50
32 | COc1cc(-c2ccncc2)c(-c2ccc(OCc3ccc4ccccc4n3)cc2)cc1OC [Example 1862, 2-((4′,5′-dimethoxy-2′-(pyridin-4-yl)biphenyl-4-yloxy)methyl)quinoline] | > 50
33 | Fc1ccc2nc(COc3ccc(-c4ccccc4-c4ccncc4)cc3)ccc2c1 [Example 560, 6-fluoro-2-((2′-(pyridin-4-yl)biphenyl-4-yloxy)methyl)quinoline] | ≤ 50
34 | CCc1ccc(COc2ccc(-c3ccccc3-c3ccncc3)cc2)nc1 [Example 1878, 5-ethyl-2-((2′-(pyridin-4-yl)biphenyl-4-yloxy)methyl)pyridine] | > 50
35 | CCCc1ccccc1-c1ccc(OCc2ccc3ccccc3n2)cc1 [Example 1866, 2-((2′-propylbiphenyl-4-yloxy)methyl)quinoline] | > 50
36 | c1ccc(-c2ccoc2)c(-c2ccc(OCc3ccc4ccccc4n3)cc2)c1 [Example 1871, 2-((2′-(furan-3-yl)biphenyl-4-yloxy)methyl)quinoline] | > 50
37 | COc1ccccc1-c1ccc(OCc2ccc3ccccc3n2)cc1 [Example 1883, 2-((2′-methoxybiphenyl-4-yloxy)methyl)quinoline] | > 50
38 | Cc1cccnc1COc1ccc(-c2ccccc2-c2ccncc2)cc1 [Example 1882, 3-methyl-2-((2′-(pyridin-4-yl)biphenyl-4-yloxy)methyl)pyridine] | > 50
39 | COc1ccc(-c2ccccc2-c2ccc(OCc3ccc4ccccc4n3)cc2)cc1F [Example 1858] | ≤ 50
40 | Cc1ccc(COc2ccc(-c3ccccc3-c3ccncc3)cc2)nc1 [Example 501, 5-methyl-2-((2′-(pyridin-4-yl)biphenyl-4-yloxy)methyl)pyridine] | ≤ 50
41 | c1ccc(C2CCCCC2)c(-c2ccc(OCc3ccc4ccccc4n3)cc2)c1 [Example 1877, 2-((2′-cyclohexylbiphenyl-4-yloxy)methyl)quinoline] | > 50
42 | CC(C)c1ccccc1-c1ccc(OCc2ccc3ccccc3n2)cc1 [Example 443, 2-((2′-isopropylbiphenyl-4-yloxy)methyl)quinoline] | > 50
43 | Cc1cc(-c2ccncc2)c(-c2ccc(OCc3ccc4ccccc4n3)cc2)cc1C [Example 1880, 2-((4′,5′-dimethyl-2′-(pyridin-4-yl)biphenyl-4-yloxy)methyl)quinoline] | > 50
44 | CCc1ccccc1-c1ccc(OCc2ccc3ccccc3n2)cc1 [Example 1875, 2-((2′-ethylbiphenyl-4-yloxy)methyl)quinoline] | > 50
45 | COc1cc(-c2ccccc2-c2ccc(OCc3ccc4ccccc4n3)cc2)ccc1C#N [Example 205] | ≤ 50
46 | O=[N+]([O-])c1cccc(-c2ccncc2)c1-c1ccc(OCc2ccc3ccccc3n2)cc1 [Example 384, 2-(2′-Nitro-6′-pyridin-4-yl-biphenyl-4-yloxymethyl)-quinoline] | ≤ 50
47 | N#Cc1ccc(-c2ccccc2-c2ccc(OCc3ccc4ccccc4n3)cc2)cc1 [Example 255] | ≤ 50
